Assay type in all cases: physicochemical
The nature of data set [1]: Contact angle measurements on SAM-modified substrates. Conditions: SAM-modified nano-grooved SiO2. As for the experimental part:
The nano-grooved SiO2 substrates passivated with Z-Cat-Ben or Z-Cat-Ben-F SAMs were prepared with the same procedure described above. For the reference substrate, the pre-cleaned and ultraviolet/ozone-treated (for 10 min) nano-grooved SiO2 substrate was passivated with n-decyltrichlorosilane (Gelest Inc.) in toluene solution (1% by volume) at 80° C. for 20 min in ambient air. Then, the substrate was subsequently sonicated in toluene and rinsed with additional toluene several times. Anhydrous chlorobenzene (50 μL) was used as a droplet dropping on the substrates. All contact angle images were taken at the direction perpendicular to nano-grooves in the substrates using Dataphysics OCA 15EC goniometer.

A short description of data set [2]: QCM-D adsorption of zwitterionic molecules. Particulars: silica. An excerpt: Quartz Crystal Microbalance (QCM): Adsorption of the molecules on different surfaces such as silica, SiO2, (FIGS. 7A-7E) and titania, TiO2, (FIGS. 8A-8E) was also explored by the quartz crystal microbalance (QCM) and confocal fluorescence microscopy after rhodamine staining (FIG. 27A-27B). Quartz crystal microbalance with dissipation (QCM-D): A “static cell” (often called “Open Model”) QCM-D (Q-Sense, Biolin Scientific) was employed to qualitatively show the adsorption of the zwitterionic molecules onto mineral and metal oxide surfaces. 50 μl of 5 mM zwitterionic solution was deposited onto TiO2 and SiO2 surface, respectively, in DI H2O (100 μl) using a static cell via two-step adsorption. […] However, a quantitative discussion regarding the adsorbed mass (frequency shift) and the viscoelastic properties (dissipation) of the adsorbed “soft” layers is challenging because the mass of the zwitterionic molecules cannot be separated from the mass of adsorbed water. […]
Quartz crystal microbalance with dissipation (QCM-D) is an extension to the QCM technique developed by Q-Sense® and can be used to determine the rigidity/softness and the viscoelastic properties of the adsorbed material. The QCM quartz crystal was coated with different rigid materials (e.g., metals, polymers, dielectrics) and the adsorption kinetics can be monitored on these materials in liquid environment. […]

The nature of data set [3]: AFM adhesion force runs with silica probe on Z-Cat-C10 coated copper plate. Conditions: CuO2/Cu(OH)2 and SiO2 surfaces. As for the experimental part: AFM force runs were measured with and without Z-Cat-C10 on silicon wafer and copper plate, respectively, vs. silicon dioxide probe. Underwater force run was conducted for the surface prepared subsequently after spreading the 5 mM Z-Cat-C10, waiting for 2 min, rinsing thoroughly with degassed DI water thoroughly for 3 times. Dry force run was performed after ˜5 min dry of the surface prepared as for the underwater force run. […] Cantilever spring constant (K) for #=10 μm silica tip on silicon wafer and copper plate with Z-Cat-C10, was 0.1 N m^−1.
The measured adhesion, Fa, force (minimum of the potential well of the F vs. D curves obtained from AFM measurements) is related to the adhesion energy per unit area by Wa=Fa/2πR for rigid surfaces with weak adhesive interactions, and by Wa=Fa/1.5πR (used in this study) for soft deformable surfaces with strong adhesion or cohesion. […]
The adhesion/cohesion energy of the synthetic zwitterionic molecules was investigated in SFA (SurForce LLC, Santa Barbara, CA). […] The adhesion forces between Z-Cat-C10 molecules on various surfaces, e.g., silica and copper, were also measured by AFM (MFP-3D, Asylum research, Goleta, CA) in DI water and ambient conditions, respectively, at room temperature. […] Cantilever spring constants were measured for each force run. […]

In the case of `C[N+](C)(CCCc1ccccc1)CCOP(=O)([O-])OCCCc1ccc(O)c(O)c1` [Z-Cat-Ben], the “contact angle θ of chlorobenzene droplet” value in data set [1] is “≈ 1 °”. The molecule also gave an adsorbed mass in data set [2] (5 mM, zero applied pressure) of 85 ng/cm^2. In addition, in data set [2] (Voigt model), the adsorbed layer thickness is on record as 1 nm.

With `CN(C)CCOP(=O)(O)OCCCc1ccc(O)c(O)c1` [Z-Cat-C10], the “adhesion Wad after air-drying” value in data set [3] (air-dried ~5 min) was about 4 mJ m^−2. Besides, in data set [3] (underwater), the “wet work of adhesion Wad” value was about 0.1 mJ m^−2.
